# According to US20090069394A1, “CANCER TREATMENT WITH EPOTHILONES” (priority 2003, published 2009):
# Key:
# [1] = tested on: Human epidermoid carcinoma KB-8511 cells; test: KB-8511 human tumor xenograft model, loading/maintenance dosage regimens; format: in vivo, BALB/c nude mice
# Description: 7,11-Dihydroxy-8,8,10,12,16-pentamethyl-3-[1-methyl-2-(2-methylsulfanyl-thiazol-4-yl)-vinyl]-4,17-dioxa-bicyclo[14.1.0]heptadecane-5,9-dione is dissolved in PEG300 and immediately diluted with saline (0.9% w/v NaCl) to the desired final concentration to be administered to mice as. The injected volume is 10 ml/kg i.v. Formulations are prepared immediately before use. Adriablastin/EÊ (Pharmacia and Upjohn) is purchased as a 2 mg/mL solution, and diluted with saline (0.9% NaCl) to prepare the 0.3 mg/mL solution used to treat animals. Taxol. (Bristol-Myers Squibb AG) is purchased as a 6 mg/ml solution, and diluted with saline to prepare the 1.5 mg/ml solution used to treat animals.
# Human epidermoid carcinoma KB-8511 cells are obtained from Dr R. M. Baker, Roswell, Park Memorial Institute (Buffalo, N.Y., USA). Because of pgp170 overexpression, these cells are multi-drug resistant (Akiyama, et al 1985). KB-8511 cells are cultured as previously described.
# The experimental details of the human tumor xenograft model has been described previously. A maximum of 10 female nude mice are kept under sterile conditions (type III cage, in an OHC zone) with free access to food and water. […] 7,11-Dihydroxy-8,8,10,12,16-pentamethyl-[1-methyl-2-(2-methylsulfanyl-thiazol-4-yl)-vinyl]-4,17-dioxa-bicyclo[14.1.0]heptadecane-5,9-dione is administered i.v. and tumor volumes and body weights are measured twice per week. Tumor volumes are determined by using callipers for measurement of longest (considered as Length) and shortest (considered as Diameter) dimensions of each tumors, and according to the formula Length×Diameter2×δ/6. Tumor growth and body weights are monitored twice weekly. When mentioned, antitumor activity is expressed as TIC % (mean increase of tumor volumes of treated animals divided by the mean increase of tumor volumes of control animals multiplied by 100) and/or as Tumor Regression (Reg %), calculated as ((mean tumor volume at the start of treatment minus mean tumor volume)/mean tumor volume at the start of treatment)×100. […]
# [2] = Tolerability (body weight) in KB-8511 tumor-bearing mice; format: in vivo, BALB/c nude mice
# Description: The experimental details of the human tumor xenograft model has been described previously. A maximum of 10 female nude mice are kept under sterile conditions (type III cage, in an OHC zone) with free access to food and water. KB-8511 tumors are established by subcutaneous injection of cells (2×10^6 cells in 100 μL PBS). The resulting tumors (at a size of 700 to 1000 mm3) are passaged in vivo at least 3 times prior to chemotherapy experimentation, and tumor-bearing mice are treated with Adriablastin/EÊ at 3 mg/kg (10 mL/kg) every week, in order to keep high levels of pgp170 expression. Tumor fragments of about 25 mg are implanted subcutaneously into the left flank of the animals with a 13 gauge trocar needle under Forene/EÊ (Abbott, Switzerland) anesthesia. Unless otherwise stated, treatments are always initiated when the mean tumor volume in each group reached 100 mm3. […] 7,11-Dihydroxy-8,8,10,12,16-pentamethyl-[1-methyl-2-(2-methylsulfanyl-thiazol-4-yl)-vinyl]-4,17-dioxa-bicyclo[14.1.0]heptadecane-5,9-dione is administered i.v. and tumor volumes and body weights are measured twice per week. Tumor volumes are determined by using callipers for measurement of longest (considered as Length) and shortest (considered as Diameter) dimensions of each tumors, and according to the formula Length×Diameter2×δ/6. Tumor growth and body weights are monitored twice weekly. […]
# [3] = set-up: species or system BALB/c nude mice; details: mouse, in vivo
# Description: BALB/c nude mice bearing KB-8511 xenograft tumors (initial volume of 250 mm3) were treated using various loading and maintenance dosage regimens to probe the validity of such regimens and to validate the predictions obtained with the PK-PD model. […] The kinetics of body weight loss on some of the tested loading and maintenance dosage regimens (L/MDR) were more benign (i.e. less fluctuating) than those observed on the corresponding fixed dosage regimens (FDR). […] It is concluded that the loading and maintenance dosing concept, by taking into account the very slow elimination rate of NVP-ABJ879, appears to represent an alternative dosing schemeunder which this drug can be dosed weekly.
# [4] = cited from earlier work
# [5] = tested on: colorectal, renal, prostatic, pancreatic, gastric and brain cancers; details: cited from earlier work
smiles,measurement,setting,value
"CSc1nc(C=C(C)C2CC3OC3(C)CCCC(C)C(O)C(C)C(=O)C(C)(C)C(O)CC(=O)O2)cs1 (centres unmarked) [7,11-Dihydroxy-8,8,10,12,16-pentamethyl-3-[1-methyl-2-(2-methylsulfanyl-thiazol-4-yl)-vinyl]-4,17-dioxa-bicyclo[14.1.0]heptadecane-5,9-dione]",tumor relapse,[1]; 1.5/0.5 mg/kg dosing,tumor relapse was observed in some of the animals
same,antitumor activity where tolerability improved (dose optimization),"[1]; initial tumor volume 100 mm3, tolerability assessed on body weight change",reduced antitumor activity
same,antitumor activity,"[1]; loading and maintenance 1.5 mg/kg-0.5 mg/kg or 2.1 mg/kg-0.7 mg/kg, weekly i.v., initial tumor volume 250 mm3",strong antitumor activity
same,tolerability (stabilization of the body weight loss),"[2]; loading and maintenance 1.5 mg/kg-0.5 mg/kg or 2.1 mg/kg-0.7 mg/kg, weekly i.v.",enhanced tolerability
same,kinetics of body weight loss,[2]; some loading and maintenance dosage regimens (L/MDR) versus corresponding fixed dosage regimens (FDR),more benign
same,elimination rate,[3],very slow
"CC(=O)O[C@H]1C(=O)[C@@]2(C)[C@H]([C@H](OC(=O)c3ccccc3)[C@]3(O)C[C@H](OC(=O)[C@H](O)[C@@H](NC(=O)c4ccccc4)c4ccccc4)C(C)=C1C3(C)C)[C@]1(OC(C)=O)CO[C@@H]1C[C@@H]2O [TAXOL®, paclitaxel]",solubility in water,[4],extremely low
same,clinical activity as a single agent,[5],poorly active clinically
